Test results published in paper PMC10140934, “In Vitro and In Silico Studies on Angiotensin I-Converting Enzyme Inhibitory Peptides Found in Hydrophobic Domains of Porcine Elastin” (Molecules, 2023).
Residues, ends and D or L forms follow the SMILES beside them. No end group written: not given here.

What follows are compounds tested against T1, ACE (from rabbit lung) (Oryctolagus cuniculus, UniProt P12822) (assay: Assay of ACE inhibitory activity (HHL substrate, o-phthalaldehyde fluorescence)). Conditions: pH 8.3, 37 °C, n = 3.
T1 construct: ACE (20 mU/mL, from rabbit lung) was used for the enzyme solution; from tissue; host or cells: rabbit lung
T1 sequence (P12822 34-1310): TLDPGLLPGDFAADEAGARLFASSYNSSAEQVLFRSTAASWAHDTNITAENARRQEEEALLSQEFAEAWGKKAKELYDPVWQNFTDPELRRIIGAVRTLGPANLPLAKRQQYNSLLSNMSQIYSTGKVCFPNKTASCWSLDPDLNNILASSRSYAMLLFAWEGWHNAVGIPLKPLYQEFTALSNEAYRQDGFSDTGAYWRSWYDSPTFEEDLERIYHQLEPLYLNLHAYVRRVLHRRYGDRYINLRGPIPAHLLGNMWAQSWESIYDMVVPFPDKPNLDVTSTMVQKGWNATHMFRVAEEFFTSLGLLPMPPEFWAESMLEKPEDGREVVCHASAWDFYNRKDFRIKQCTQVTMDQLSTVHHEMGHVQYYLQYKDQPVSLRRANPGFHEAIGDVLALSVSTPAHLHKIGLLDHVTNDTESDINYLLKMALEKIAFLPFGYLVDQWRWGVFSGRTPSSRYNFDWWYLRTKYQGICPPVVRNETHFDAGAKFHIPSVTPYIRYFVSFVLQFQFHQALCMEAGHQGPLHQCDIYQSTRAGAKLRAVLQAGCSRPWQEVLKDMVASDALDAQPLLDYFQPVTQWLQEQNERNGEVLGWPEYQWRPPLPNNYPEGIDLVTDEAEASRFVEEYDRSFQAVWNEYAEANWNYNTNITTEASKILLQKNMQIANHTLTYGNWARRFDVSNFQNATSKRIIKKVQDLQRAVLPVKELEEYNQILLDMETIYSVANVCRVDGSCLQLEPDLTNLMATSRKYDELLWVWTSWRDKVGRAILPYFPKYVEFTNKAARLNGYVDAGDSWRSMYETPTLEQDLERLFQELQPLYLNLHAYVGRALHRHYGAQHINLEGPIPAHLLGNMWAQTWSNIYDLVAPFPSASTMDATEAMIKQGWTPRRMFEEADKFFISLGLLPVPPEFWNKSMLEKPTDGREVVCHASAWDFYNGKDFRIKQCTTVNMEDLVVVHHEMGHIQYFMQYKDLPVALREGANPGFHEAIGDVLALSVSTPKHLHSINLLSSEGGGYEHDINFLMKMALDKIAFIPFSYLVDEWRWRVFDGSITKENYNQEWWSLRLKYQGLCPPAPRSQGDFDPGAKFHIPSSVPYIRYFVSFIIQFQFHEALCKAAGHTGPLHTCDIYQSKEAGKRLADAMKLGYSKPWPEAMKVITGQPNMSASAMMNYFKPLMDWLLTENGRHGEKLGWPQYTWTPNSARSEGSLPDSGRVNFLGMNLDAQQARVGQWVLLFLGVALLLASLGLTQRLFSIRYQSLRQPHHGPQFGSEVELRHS
Assay type: biochemical
Procedure: The ACE inhibitory activity of newly synthesized peptides was measured under the following condition by using Nakano et al.’s method. ACE (20 mU/mL, from rabbit lung) was used for the enzyme solution and 100 mM hippuryl-histidyl-leucine (HHL) was used for the substrate solution. Each solution was prepared in 0.1 M HEPES buffer (pH 8.3, 0.3 M NaCl, 0.01% Triton-X). Both enzyme solution (25 μL) and sample solution (20 μL) were preincubated at 37 °C for 5 min. A total of 100 mM HHL substrate solution (25 μL) was added and incubated at 37 °C for 30 min. The reaction was stopped by the addition of 100 mM NaOH solution (25 μL), followed by the addition of 1% o-phthalaldehyde in methanol (25 μL) and maintained at room temperature for 20 min. Next, 100 mM HCl (25 μL) was added and further maintained at room temperature for 10 min. The amount of His-Leu cleaved from the substrate by ACE was determined by measuring the fluorescence intensity of the product reacted with o-phthalaldehyde (excitation wavelength 370 nm, emission wavelength 460 nm) in a microplate reader. ACE inhibitory activity was calculated by the following formula:a ACE inhibitory activity (%) = [1 − (a − c)/(b − d)] × 100(1) where a is the fluorescence intensity in the presence of both ACE and the inhibitor, b is the fluorescence intensity in the presence of ACE without the inhibitor, c is the fluorescence intensity in the presence of the inhibitor without ACE, and d is the fluorescence intensity in the absence of both ACE and the inhibitor. ACE inhibitory activity was expressed by IC50 value: the concentration of inhibition required to inhibit 50% of the ACE activity, and each IC50 value was measured three times.

Row | Compound | IC50 [µM]
1 | CC(C)C[C@H](NC(=O)CN)C(=O)NCC(=O)O [GLG] (H-Gly-Leu-Gly-OH) | 485
2 | C[C@H](N)C(=O)N1CCC[C@H]1C(=O)O [AP] (H-Ala-Pro-OH) | 230
3 | CC(C)[C@H](N)C(=O)N[C@@H](C)C(=O)N1CCC[C@H]1C(=O)O [VAP] (H-Val-Ala-Pro-OH) | 1
4 | C[C@@H](O)[C@H](N)C(=O)N[C@@H](CCCNC(=N)N)C(=O)N1CCC[C@H]1C(=O)O [TRP] (H-Thr-Arg-Pro-OH) | 1.3
5 | C[C@H](NC(=O)CN)C(=O)N1CCC[C@H]1C(=O)O [GAP] (H-Gly-Ala-Pro-OH) | 35
6 | VAPGVG [VAPGVG] | 906
7 | CC(C)[C@H](N)C(=O)N[C@@H](CO)C(=O)N1CCC[C@H]1C(=O)O [VSP] (H-Val-Ser-Pro-OH) | 10.4
8 | CC(C)[C@H](NC(=O)CN)C(=O)NCC(=O)O [GVG] (H-Gly-Val-Gly-OH) | 369
9 | CC(C)[C@H](N)C(=O)N[C@@H](C)C(=O)O [VA] (H-Val-Ala-OH) | 326
